{
  "source": "BindingDB's records for doi:10.7270/Q2251GJ9",
  "about": "(The Scripps Research Institute Molecular Screening Center, 2007)",
  "note": "Counter-ions that a name gives are not always drawn.",
  "data": [
    {"molecular_target": "Sphingosine 1-phosphate receptor 1 (Homo sapiens, UniProt P21453)", "sequence (P21453 whole entry)": "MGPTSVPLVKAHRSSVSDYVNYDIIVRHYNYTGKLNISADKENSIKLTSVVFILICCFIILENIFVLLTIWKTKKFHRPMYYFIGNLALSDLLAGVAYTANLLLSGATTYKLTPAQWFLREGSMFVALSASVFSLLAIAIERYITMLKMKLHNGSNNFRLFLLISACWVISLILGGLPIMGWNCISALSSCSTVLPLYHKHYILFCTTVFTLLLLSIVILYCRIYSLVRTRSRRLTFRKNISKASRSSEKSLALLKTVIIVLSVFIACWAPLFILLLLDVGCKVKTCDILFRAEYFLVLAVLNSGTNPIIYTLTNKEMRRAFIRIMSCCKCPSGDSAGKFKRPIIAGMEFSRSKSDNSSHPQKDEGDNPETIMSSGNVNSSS", "test": "S1P1 receptor agonists, dose response, cell-based, agonist mode, 60K MLSMR set (AID 468)", "settings": "not given", "units": {"EC50": "µM"}, "values": [
      {"smiles": "CC(C)(C)C1CCC2(CC1)C(C#N)=C(SCC(=O)Nc1ccccc1)NC(=O)C2C#N", "note": "(stereo not given) [2-[(9-tert-butyl-1,5-dicyano-2-oxidanylidene-3-azaspiro[5.5]undec-4-en-4-yl)sulfanyl]-N-phenyl-ethanamide]", "EC50": 4.92},
      {"smiles": "COCCn1c(C)cc(C(=O)CSc2nc3ccccc3c(=O)[nH]2)c1C", "note": "[2-[[2-[1-(2-methoxyethyl)-2,5-dimethyl-3-pyrrolyl]-2-oxoethyl]thio]-1H-quinazolin-4-one]", "EC50": 61.2},
      {"smiles": "COCCn1c(C)cc(C(=O)CSc2nnc(-c3cccnc3)n2-c2ccccc2F)c1C", "note": "[2-[[4-(2-fluorophenyl)-5-(3-pyridinyl)-1,2,4-triazol-3-yl]thio]-1-[1-(2-methoxyethyl)-2,5-dimethyl-3-pyrrolyl]ethanone]", "EC50": 1.87},
      {"smiles": "Cc1ccccc1-n1c(SCC(=O)c2cc(C)n(C)c2C)nnc1-c1ccncc1", "note": "[2-[[4-(2-methylphenyl)-5-pyridin-4-yl-1,2,4-triazol-3-yl]sulfanyl]-1-(1,2,5-trimethylpyrrol-3-yl)ethanone]", "EC50": 10},
      {"smiles": "O=C(CSc1nnc(Cc2csc(Nc3cccc(Cl)c3)n2)o1)N1CCc2ccccc21", "note": "[2-[[5-[[2-(3-chloroanilino)-1,3-thiazol-4-yl]methyl]-1,3,4-oxadiazol-2-yl]sulfanyl]-1-(2,3-dihydroindol-1-yl)ethanone]", "EC50": "> 95"},
      {"smiles": "Cc1ccc(-c2nc(CSCC(=O)N3CCN(c4ccccn4)CC3)c(C)o2)cc1", "note": "[2-[[5-methyl-2-(4-methylphenyl)-1,3-oxazol-4-yl]methylsulfanyl]-1-(4-pyridin-2-ylpiperazin-1-yl)ethanone]", "EC50": 5.51},
      {"smiles": "CCN(CC)C(=O)CS/C(=N/C#N)Nc1ccccc1F", "note": "[2-[[N-cyano-N'-(2-fluorophenyl)amidino]thio]-N,N-diethyl-acetamide]", "EC50": "> 95"},
      {"smiles": "Clc1ccc(OCc2nnc(SCc3nc4ccccc4[nH]3)n2Cc2ccco2)cc1", "note": "[2-[[[5-[(4-chlorophenoxy)methyl]-4-(2-furanylmethyl)-1,2,4-triazol-3-yl]thio]methyl]-1H-benzimidazole]", "EC50": 7.6},
      {"smiles": "Oc1ccc(C2NCc3ccccc3-n3cccc32)cc1Cl", "note": "(stereo not given) [2-chloranyl-4-(5,6-dihydro-4H-pyrrolo[1,2-a][1,4]benzodiazepin-4-yl)phenol;hydrochloride]", "EC50": 3.04},
      {"smiles": "CCOC(=O)c1ccc2c(c1)C(=O)N(C1CCCCC1)C2=O", "note": "[2-cyclohexyl-1,3-diketo-isoindoline-5-carboxylic acid ethyl ester]", "EC50": "> 95"},
      {"smiles": "CCOc1nc(C)ccc1-c1noc(-c2ccncc2)n1", "note": "[2-ethoxy-6-methyl-3-[5-(4-pyridinyl)-1,2,4-oxadiazol-3-yl]pyridine]", "EC50": 5.42},
      {"smiles": "COc1cc(C#CC#CCN2CCCCC2)ccc1O", "note": "[2-methoxy-4-(5-piperidin-1-ylpenta-1,3-diynyl)phenol;hydrochloride]", "EC50": 8.34},
      {"smiles": "COCC(=O)Nc1cccc(C(F)(F)F)c1", "note": "[2-methoxy-N-[3-(trifluoromethyl)phenyl]acetamide]", "EC50": "> 95"},
      {"smiles": "Cc1ccc(-n2c(C)cc(C(=O)COC(=O)c3c(C)noc3C)c2C)cc1", "note": "[3,5-dimethyl-4-isoxazolecarboxylic acid [2-[2,5-dimethyl-1-(4-methylphenyl)-3-pyrrolyl]-2-oxoethyl] ester]", "EC50": 8.31},
      {"smiles": "N#CCCS(=O)(=O)c1nnnn1-c1ccccc1", "note": "[3-(1-phenyltetrazol-5-yl)sulfonylpropanenitrile]", "EC50": 3.66},
      {"smiles": "O=c1c(-c2ccc3c(c2)OCCO3)c(C(F)(F)F)oc2cc(O)cc(O)c12", "note": "[3-(2,3-dihydro-1,4-benzodioxin-6-yl)-5,7-bis(oxidanyl)-2-(trifluoromethyl)chromen-4-one]", "EC50": 4.13},
      {"smiles": "CCOC(=O)c1oc2cc(O)c(CC)cc2c(=O)c1-c1ccc2c(c1)OCCO2", "note": "[3-(2,3-dihydro-1,4-benzodioxin-6-yl)-6-ethyl-7-hydroxy-4-keto-chromene-2-carboxylic acid ethyl ester]", "EC50": "> 10"},
      {"smiles": "Cc1cc(-c2nnc(-c3ccccc3)c(-c3ccccc3)n2)c(C)o1", "note": "[3-(2,5-dimethyl-3-furanyl)-5,6-diphenyl-1,2,4-triazine]", "EC50": 2.97},
      {"smiles": "CCOc1ccc(-c2noc(-c3ccncc3)n2)cc1OCC", "note": "[3-(3,4-diethoxyphenyl)-5-(4-pyridyl)-1,2,4-oxadiazole]", "EC50": 0.613},
      {"smiles": "Cc1oc2cc(O)cc(O)c2c(=O)c1-c1ccc2c(c1)OCCCO2", "note": "[3-(3,4-dihydro-2H-1,5-benzodioxepin-7-yl)-2-methyl-5,7-bis(oxidanyl)chromen-4-one]", "EC50": 4.54},
      {"smiles": "COc1ccc(-c2noc(-c3cc(C)cc(C)c3)n2)cc1OC", "note": "[3-(3,4-dimethoxyphenyl)-5-(3,5-dimethylphenyl)-1,2,4-oxadiazole]", "EC50": 1.23},
      {"smiles": "CCOc1ccc(-c2noc(-c3cccnc3)n2)cc1OC", "note": "[3-(4-ethoxy-3-methoxy-phenyl)-5-(3-pyridyl)-1,2,4-oxadiazole]", "EC50": 1.2},
      {"smiles": "CC(C)Oc1cc(O)c2c(=O)c(-c3ccc(O)cc3)coc2c1", "note": "[3-(4-hydroxyphenyl)-5-oxidanyl-7-propan-2-yloxy-chromen-4-one]", "EC50": "> 1"},
      {"smiles": "COc1ccc(-c2nc(-c3ccc(Br)o3)no2)cc1OC", "note": "[3-(5-bromanylfuran-2-yl)-5-(3,4-dimethoxyphenyl)-1,2,4-oxadiazole]", "EC50": 7.98},
      {"smiles": "CN(C)CC(C(=O)c1ccccc1)c1ccccc1", "note": "(stereo not given) [3-(dimethylamino)-1,2-diphenyl-1-propanone;hydrochloride]", "EC50": 9.7},
      {"smiles": "CCOc1ccc(-c2nc(-c3ccccc3C)no2)cc1", "note": "[3-(o-tolyl)-5-p-phenetyl-1,2,4-oxadiazole]", "EC50": 1.87},
      {"smiles": "CN(C)c1ccnc2sc3c(=O)n(Cc4ccccc4)cnc3c12", "note": "[3-Benzyl-9-dimethylamino-3H-pyrido[3',2':4,5]thieno[3,2-d]pyrimidin-4-one]", "EC50": 2.47},
      {"smiles": "Cc1cc(NC(=O)c2oc3ccccc3c2C)ccc1-n1cnnn1", "note": "[3-Methyl-benzofuran-2-carboxylic acid (3-methyl-4-tetrazol-1-yl-phenyl)-amide]", "EC50": 7.44},
      {"smiles": "Cc1cc(C(=O)CC#N)c(C)n1-c1ccc(OC(F)F)cc1", "note": "[3-[1-[4-(difluoromethoxy)phenyl]-2,5-dimethyl-3-pyrrolyl]-3-oxopropanenitrile]", "EC50": "> 10"},
      {"smiles": "O=C(CCc1nc(-c2ccccc2F)no1)Nc1ccc(Oc2ccccc2)cc1", "note": "[3-[3-(2-fluorophenyl)-1,2,4-oxadiazol-5-yl]-N-(4-phenoxyphenyl)propanamide]", "EC50": 4.94},
      {"smiles": "COc1ccc(/N=c2\\scc(-c3ccc(S(=O)(=O)N4CCOCC4)cc3)n2CCCO)cc1", "note": "[3-[(2Z)-2-[(4-methoxyphenyl)imino]-4-[4-(morpholin-4-ylsulfonyl)phenyl]-1,3-thiazol-3(2H)-yl]propan-1-ol]", "EC50": 13.2},
      {"smiles": "CCOc1ccc(C(=O)Nc2c(C(N)=O)oc3ccccc23)cc1", "note": "[3-[(4-ethoxybenzoyl)amino]-1-benzofuran-2-carboxamide]", "EC50": 4.08},
      {"smiles": "CCOc1ccc(C(=O)Nc2ccc(Cl)cn2)cc1Cl", "note": "[3-chloranyl-N-(5-chloranylpyridin-2-yl)-4-ethoxy-benzamide]", "EC50": 5.51},
      {"smiles": "Cc1ccc(O)c(NC(=O)CCC2CCCCC2)c1", "note": "[3-cyclohexyl-N-(2-hydroxy-5-methyl-phenyl)propionamide]", "EC50": "> 95"},
      {"smiles": "Cc1ccsc1C(=O)OCC(=O)c1cc(C)n(CC2CCCO2)c1C", "note": "(stereo not given) [3-methyl-2-thiophenecarboxylic acid [2-[2,5-dimethyl-1-(2-oxolanylmethyl)-3-pyrrolyl]-2-oxoethyl] ester]", "EC50": 7.53}
    ]},
    {"molecular_target": "Sphingosine 1-phosphate receptor 1 (Homo sapiens, UniProt P21453)", "test": "S1P1 receptor agonists, dose response, cell-based, agonist mode, 60K MLSMR set (AID 468)", "settings": "inactive by the depositor's call", "units": {"EC50": "µM"}, "values": [
      {"smiles": "O=C(CSc1nnc(-c2ccc(Cl)cc2)n1Cc1ccco1)c1cccs1", "note": "[2-[[5-(4-chlorophenyl)-4-(2-furanylmethyl)-1,2,4-triazol-3-yl]thio]-1-thiophen-2-ylethanone]", "EC50": 17.3},
      {"smiles": "Nn1c(Nc2ccccc2)nc2sc3c(c2c1=O)CCC3", "note": "[2-amino-3-anilino-7,8-dihydro-6H-cyclopenta[2,3]thieno[2,4-b]pyrimidin-1-one]", "EC50": 16.4},
      {"smiles": "Cc1nc2sc(-c3ccccc3)cc2c(=O)n1-n1cccc1", "note": "[2-methyl-6-phenyl-3-(1-pyrrolyl)-4-thieno[2,3-d]pyrimidinone]", "EC50": 22.2},
      {"smiles": "COc1ccc(-c2cn3c(C)c(C(=O)N4CCCc5ccccc54)sc3n2)cc1", "note": "[3,4-dihydro-2H-quinolin-1-yl-[6-(4-methoxyphenyl)-3-methyl-2-imidazo[2,1-b]thiazolyl]methanone]", "EC50": 50.5},
      {"smiles": "Cc1ccc(-c2nc(COC(=O)c3c(C)noc3C)cs2)cc1", "note": "[3,5-dimethyl-4-isoxazolecarboxylic acid [2-(4-methylphenyl)-4-thiazolyl]methyl ester]", "EC50": 26.2},
      {"smiles": "Cc1onc(-c2ccccc2Cl)c1C(=O)Oc1cc(N)n(S(=O)(=O)c2ccc(F)cc2)n1", "note": "[3-(2-chlorophenyl)-5-methyl-4-isoxazolecarboxylic acid [5-amino-1-(4-fluorophenyl)sulfonyl-3-pyrazolyl] ester]", "EC50": 18.1},
      {"smiles": "CCOc1cc(-c2noc(-c3cccnc3)n2)ccc1OC", "note": "[3-(3-ethoxy-4-methoxy-phenyl)-5-(3-pyridyl)-1,2,4-oxadiazole]", "EC50": 18.7},
      {"smiles": "COc1ccccc1-c1nc(-c2ccc(Br)cc2)no1", "note": "[3-(4-bromophenyl)-5-(2-methoxyphenyl)-1,2,4-oxadiazole]", "EC50": 12},
      {"smiles": "COc1ccc(Cc2nc(-c3ccc(-n4cccc4)cc3)no2)cc1OC", "note": "[3-(4-pyrrol-1-ylphenyl)-5-veratryl-1,2,4-oxadiazole]", "EC50": 13.7},
      {"smiles": "CCSc1nc(N2CCOCC2)c2c(c1C#N)CCCC2", "note": "[3-(ethylthio)-1-(4-morpholinyl)-5,6,7,8-tetrahydroisoquinoline-4-carbonitrile]", "EC50": 46.8},
      {"smiles": "Nc1c(C(=O)NC2CCCC2)sc2nc(-c3cccs3)ccc12", "note": "[3-Amino-6-thiophen-2-yl-thieno[2,3-b]pyridine-2-carboxylic acid cyclopentylamide]", "EC50": 14.4},
      {"smiles": "CC/N=c1\\sc(C(=O)NCCc2ccccc2)cc(=O)n1CC", "note": "[3-Ethyl-2-[(Z)-ethylimino]-4-oxo-3,4-dihydro-2H-[1,3]thiazine-6-carboxylic acid phenethyl-amide]", "EC50": 22.5},
      {"smiles": "CCN(CC)S(=O)(=O)c1cccc(S(=O)(=O)c2cccc(S(=O)(=O)N(CC)CC)c2)c1", "note": "[3-[3-(diethylsulfamoyl)phenyl]sulfonyl-N,N-diethyl-benzenesulfonamide]", "EC50": 19.3},
      {"smiles": "CCn1c(NC(=O)c2cccc(Cn3cc(Cl)cn3)c2)nc2ccccc21", "note": "[3-[(4-chloranylpyrazol-1-yl)methyl]-N-(1-ethylbenzimidazol-2-yl)benzamide]", "EC50": 14},
      {"smiles": "C=CCn1c(SCC(=O)c2cccs2)nc2sc(CC)cc2c1=O", "note": "[3-allyl-6-ethyl-2-[[2-keto-2-(2-thienyl)ethyl]thio]thieno[2,3-d]pyrimidin-4-one]", "EC50": 39.9}
    ]}
  ]
}
